# Literature values in patent US20110123622A1, “OPHTHALMIC FORMULATION AND METHOD OF MANUFACTURE THEREOF” (Inotek Pharmaceuticals Corporation, priority 2009, published 2011).
# Test system: human exhibiting elevated intraocular pressure as a result of OHT or POAG
smiles,measurement,setting,value
"O=[N+]([O-])OC[C@H]1O[C@@H](n2cnc3c(NC4CCCC4)ncnc32)[C@H](O)[C@@H]1O [Compound A, ((2R,3S,4R,5R)-5-(6-(cyclopentylamino)-9H-purin-9-yl)-3,4-dihydroxytetrahydrofuran-2-yl)methyl nitrate]","reduction in IOP, comparison of dose groups","350 mcg and 700 mcg treatment groups, HPβCD formulation",greatest reduction in IOP
same,IOP upon a single application,"formulated 1:20 wt/wt in HPβCD, 2.5 to 700 micrograms per eye",statistically significant dose-related decrement in IOP
